# Calls of active or inactive are those of the source. The calls are words filed in the database; no cut-off is given here.
# Tests used:
# [1] = system: Staphylococcus epidermidis
# [2] = system: Staphylococcus epidermidis; remark: listed apart in the source
# [3] = system: Bacteroides fragilis; assay: Antibacterial activity against Bacteroides fragilis assessed as percent susceptible isolates by CLSI M11-A7 method; format: functional
# [4] = system: Prevotella sp.; assay: Antibacterial activity against Prevotella sp. by CLSI M11-A7 method; format: functional
# [5] = system: Cutibacterium acnes; assay: Antibacterial activity against Propionibacterium acnes assessed as percent susceptible isolates by CLSI M11-A7 method; format: functional
# [6] = system: Clostridium perfringens; assay: Antibacterial activity against Clostridium perfringens by CLSI M11-A7 method; format: functional
# [7] = system: Bacteroides fragilis; assay: Antibacterial activity against Bacteroides fragilis by CLSI M11-A7 method; format: functional
# [8] = system: Peptostreptococcus sp.; assay: Antibacterial activity against Peptostreptococcus sp. assessed as percent susceptible isolates by CLSI M11-A7 method; format: functional
# [9] = system: Fusobacterium sp.; assay: Antibacterial activity against Fusobacterium sp. assessed as percent susceptible isolates by CLSI M11-A7 method; format: functional
# [10] = system: Peptostreptococcus sp.; assay: Antibacterial activity against Peptostreptococcus sp. by CLSI M11-A7 method; format: functional
# [11] = system: Fusobacterium sp.; assay: Antibacterial activity against Fusobacterium sp. by CLSI M11-A7 method; format: functional
# [12] = system: Prevotella sp.; assay: Antibacterial activity against Prevotella sp. assessed as percent susceptible isolates by CLSI M11-A7 method; format: functional
# [13] = system: Cutibacterium acnes; assay: Antibacterial activity against Propionibacterium acnes by CLSI M11-A7 method; format: functional
# [14] = system: Staphylococcus epidermidis; assay: Antibacterial activity against non-ciprofloxacin-susceptible and methicillin-susceptible Staphylococcus epidermidis assessed as percent susceptible isolates by CLSI M100-S18 method; format: functional
# [15] = system: Staphylococcus haemolyticus; assay: Antibacterial activity against Staphylococcus haemolyticus assessed as percent susceptible isolates by CLSI M100-S18 method; format: functional
# [16] = system: Staphylococcus epidermidis; assay: Antibacterial activity against ciprofloxacin-susceptible and methicillin-resistant Staphylococcus epidermidis by CLSI M100-S18 method; format: functional
# [17] = system: Staphylococcus lugdunensis; assay: Antibacterial activity against Staphylococcus lugdunensis by CLSI M100-S18 method; format: functional
# [18] = system: Staphylococcus aureus; assay: Antibacterial activity against non-ciprofloxacin-susceptible and methicillin-susceptible Staphylococcus aureus by CLSI M100-S18 method; format: functional
# [19] = system: Staphylococcus aureus; assay: Antibacterial activity against ciprofloxacin-susceptible and methicillin-resistant Staphylococcus aureus assessed as percent susceptible isolates by CLSI M100-S18 method; format: functional
# [20] = system: Staphylococcus hominis; assay: Antibacterial activity against Staphylococcus hominis by CLSI M100-S18 method; format: functional
# [21] = system: Staphylococcus lugdunensis; assay: Antibacterial activity against Staphylococcus lugdunensis assessed as percent susceptible isolates by CLSI M100-S18 method; format: functional
# [22] = system: Staphylococcus epidermidis; assay: Antibacterial activity against non-ciprofloxacin-susceptible and methicillin-susceptible Staphylococcus epidermidis by CLSI M100-S18 method; format: functional
# [23] = system: Staphylococcus saprophyticus; assay: Antibacterial activity against Staphylococcus saprophyticus assessed as percent susceptible isolates by CLSI M100-S18 method; format: functional
# [24] = system: Staphylococcus epidermidis; assay: Antibacterial activity against ciprofloxacin-susceptible and methicillin-resistant Staphylococcus epidermidis assessed as percent susceptible isolates by CLSI M100-S18 method; format: functional
# [25] = system: Staphylococcus warneri; assay: Antibacterial activity against Staphylococcus warneri assessed as percent susceptible isolates by CLSI M100-S18 method; format: functional
# [26] = system: Staphylococcus aureus; assay: Antibacterial activity against ciprofloxacin-susceptible and methicillin-resistant Staphylococcus aureus by CLSI M100-S18 method; format: functional
# [27] = system: Staphylococcus hominis; assay: Antibacterial activity against Staphylococcus hominis assessed as percent susceptible isolates by CLSI M100-S18 method; format: functional
# [28] = system: Staphylococcus aureus; assay: Antibacterial activity against non-ciprofloxacin-susceptible and methicillin-susceptible Staphylococcus aureus assessed as percent susceptible isolates by CLSI M100-S18 method; format: functional
# [29] = system: Staphylococcus warneri; assay: Antibacterial activity against Staphylococcus warneri by CLSI M100-S18 method; format: functional
# [30] = system: Staphylococcus saprophyticus; assay: Antibacterial activity against Staphylococcus saprophyticus by CLSI M100-S18 method; format: functional
# [31] = system: Moraxella catarrhalis; assay: Antibacterial activity against Moraxella catarrhalis by CLSI M7-A7 method; format: functional
# [32] = system: Staphylococcus haemolyticus; assay: Antibacterial activity against Staphylococcus haemolyticus by CLSI M100-S18 method; format: functional
structure (smiles),measurement,setting,value
COc1c(N2C[C@@H]3CCCN[C@@H]3C2)c(F)cc2c(=O)c(C(=O)O)cn(C3CC3)c12,MIC90,[1],inactive
same,MIC90,[2],inactive
O=C(O)c1cn(C2CC2)c2cc(N3CCNCC3)c(F)cc2c1=O,MIC90,[1],inactive
same,MIC90,[2],inactive
CCC[C@@H]1C[C@@H](C(=O)N[C@@H]([C@H]2O[C@H](SC)[C@H](O)[C@@H](O)[C@H]2O)[C@H](C)Cl)N(C)C1 [CLINDAMYCIN],Activity,[3],65%
same,MIC,[4],≤ 0.03 µg/mL
same,MIC50,[4],≤ 0.03 µg/mL
same,MIC90,[4],> 8 µg/mL
same,Activity,[5],100%
same,MIC50,[6],2 µg/mL
same,MIC90,[6],4 µg/mL
same,MIC50,[7],2 µg/mL
same,MIC90,[7],> 8 µg/mL
same,Activity,[8],88.5%
same,Activity,[9],95.2%
same,MIC50,[10],0.25 µg/mL
same,MIC90,[10],> 8 µg/mL
same,MIC,[11],0.06 µg/mL
same,MIC50,[11],0.06 µg/mL
same,MIC90,[11],2 µg/mL
same,Activity,[12],85%
same,MIC50,[13],0.06 µg/mL
same,MIC90,[13],0.12 µg/mL
Cc1onc(-c2ccccc2)c1C(=O)N[C@@H]1C(=O)N2[C@@H]1SC(C)(C)[C@@H]2C(=O)O [OXACILLIN],Activity,[14],16.7%
same,Activity,[15],31.7%
same,MIC50,[16],0.12 µg/mL
same,MIC90,[1],inactive
same,MIC50,[17],0.5 µg/mL
same,MIC90,[17],> 8 µg/mL
same,MIC50,[18],> 8 µg/mL
same,MIC90,[18],> 8 µg/mL
same,Activity,[19],78.9%
same,MIC50,[20],> 8 µg/mL
same,MIC90,[20],> 8 µg/mL
same,Activity,[21],60%
same,MIC50,[22],1 µg/mL
same,Activity,[23],9.9%
same,Activity,[24],55.6%
same,Activity,[25],46%
same,MIC50,[26],0.25 µg/mL
same,MIC90,[26],> 8 µg/mL
same,Activity,[27],16%
same,Activity,[28],36.4%
same,MIC50,[29],0.5 µg/mL
same,MIC90,[29],> 8 µg/mL
same,MIC50,[30],0.5 µg/mL
same,MIC90,[30],1 µg/mL
same,MIC50,[31],4 µg/mL
same,MIC90,[31],8 µg/mL
same,MIC90,[2],inactive
same,MIC50,[32],> 8 µg/mL
same,MIC90,[32],> 8 µg/mL

# — ChEMBL document CHEMBL1649565, “Besifloxacin, a novel fluoroquinolone, has broad-spectrum in vitro activity against aerobic and anaerobic bacteria” (Antimicrob Agents Chemother, 2009)
